According to patent publication US20260315608A1, “Carrier Peptide Fragment and Use Thereof” (TOAGOSEI CO., LTD., priority 2022, published 2026):
Primed or numbered codes have the meaning given here. FAM″ = C-terminal FAM dye

System: NSC-34 cells
Experiment: Evaluation on cell membrane permeability by flow cytometry (median fluorescence intensity)
Assay type: cell-based, mouse
Details: for MFI (median fluorescence intensity): 25 μM in well, 0.42% DMSO, 20 hours at 37° C., 10% FBS-containing DMEM, detector FL2; for cell membrane permeability: 25 μM, 20 hours, FAM as foreign substance, in words
Description: As the eukaryotic cells, NSC-34 cells (mouse motor neuron-like hybrid cell line) were used and the cell membrane permeability of the samples 1 to 7 was analyzed. In Examples 1 to 7, the prepared sample solutions 1 to 7 were used, respectively, and in Example 8, a FAM solution was used.
The NSC-34 cells were cultured in 10% fetal bovine serum (FBS)-containing Dulbecco's modified Eagle's medium (DMEM (Cat No. 044-29765, manufactured by FUJIFILM Wako Pure Chemical Corporation)), which is a normal culture medium.
The NSC-34 cells that adhered to a culture plate were cleaned with PBS and then, a 0.25%-trypsin/EDTA solution was added thereto, and incubation was performed for three minutes at 37° C. After the incubation, the aforementioned 10% FBS-containing DMEM was added to deactivate trypsin and then, five-minute centrifugal separation was performed at 150×g to precipitate the cells. After the supernatant generated by the centrifugal separation was removed, the 10% FBS-containing DMEM was added to the precipitate (cell pellet) to prepare a cell suspension of about 2×10^5 cells/mL. The cell suspension was added by 1 mL to a well of a commercially available six-hole (well) plate (manufactured by AGC TECHNO GLASS Co., Ltd.) so as to seed the cell (about 2×10^5 cells/well). In addition, the 6 mM sample solution 1 was diluted with the 10% FBS-containing DMEM to prepare the sample solution 1 in which the concentration of the sample 1 was 50 μM. Then, 1 mL of the 50 μM sample solution 1 was added to the well (that is, so that the concentration of the sample 1 became 25 µM and the DMSO concentration became 0.42% in the culture solution in the well). After that, the cell was incubated for 20 hours at 37° C. under a 5% CO2 condition.
After the 20-hour incubation, the culture supernatant was removed from the well and the cells in the well were cleaned twice with 1 mL of PBS. Next, 200 μL of the 0.25% trypsin/EDTA solution was added to the well and the incubation was performed for three minutes at 37° C. After the incubation, 400 μL of the 10% FBS-containing DMEM was added to the well to deactivate the trypsin. Subsequently, the cell suspension in the well was transferred to a tube and the cells were collected. After that, 600 μL of PBS was added further to the well to clean the well. Then, PBS in the well was transferred to the tube, so that the cells remaining in the well were collected in the tube. This tube was subjected to five-minute centrifugal separation at 4° C. under a condition of 210×g. After the centrifugal separation, the supernatant was removed and the precipitate (cell pellet) was suspended (cleaned) with 1 mL of PBS, which was followed by the centrifugal separation under the same condition as that described above. After this operation was repeated twice, the supernatant was removed and thus, the cells (cell pellet) cultured in a culture medium containing the sample 1 were obtained.
Regarding the obtained cells (cell pellet), the cell membrane permeability of the sample 1 was analyzed using a flow cytometer. As the flow cytometer, On-Chip Flowcytometer (manufactured by On-Chip Biotechnologies Co., LTD.) was used.
For such an analysis, the obtained cell pellet was suspended with 100 μL of on-chip T buffer to prepare a cell suspension for analysis.
Using the aforementioned flow cytometer, gating based on forward scatter (FSC) and side scatter (SSC) was performed to set a gate about a cell group to be analyzed, and the fluorescence intensity was measured about the cell group in this gate. Note that the analysis was performed so that the cell group contained at least 10000 cells or more. The fluorescence intensity was measured using a fluorescence detector FL2 of the flow cytometer (optimum detection wavelength around 543 nm) capable of detecting the fluorescence wavelength of FAM. […]

Substance | MFI (median fluorescence intensity) | cell membrane permeability
Ac-KKRTLRKEEDDRKKR-FAM (Ac-KKRTLRKEEDDRKKR-{FAM}) [Example 4] | 14.3 | 
Ac-KKRTLRKDDEERKKR-FAM (Ac-KKRTLRKDDEERKKR-{FAM}) [Example 5] | 14.8 | 
Ac-KKRTLRKDERKKR-FAM (Ac-KKRTLRKDERKKR-{FAM}) [Example 1] | 16.3 | have the cell membrane permeability
Ac-KKRTLRKEDRKKR-FAM (Ac-KKRTLRKEDRKKR-{FAM}) [Example 2] | 15.7 | have the cell membrane permeability
Ac-KKRTLRKEDEDEDRKKR-FAM (Ac-KKRTLRKEDEDEDRKKR-{FAM}) [Example 7] | 14.3 | 
Ac-KKRTLRKDEDERKKR-FAM (Ac-KKRTLRKDEDERKKR-{FAM}) [Example 6] | 15.2 | 
5 (6)-carboxyfluorescein [Example 8, reference compound] | 11 | 
Ac-KKRTLRKEDEDRKKR-FAM (Ac-KKRTLRKEDEDRKKR-{FAM″}) [Example 3] | 13.8 | 
